Data set [1] concerns the target T1, GST fusion human Keap1 (amino acid residue: 325-624) protein (Homo sapiens, UniProt Q14145).
T1 construct: GST fusion human Keap1 (amino acid residue: 325-624) protein; purchased Protein tech Ag0779
Briefly: Keap1-Nrf2 binding inhibition test (fluorescence polarization). The following applies: compound concentration of 100 nM; read-out: inhibition rate. As for the experimental part:
The inhibitory activity of each test compound on the binding between Nrf2 and Keap1 was measured by the fluorescence polarization method. A solution consisting of 20 mM tris-hydrochloride pH7.5 (NIPPON GENE CO., LTD., REF: 318-90225), 150 mM NaCl [FUJIFILM Wako Pure Chemical. Corporation, REF: 191-01665], 0.05% Tween 20 (BioRAD, REF: 161-0781), and 5 mM DTT (FUJIFILM Wako Pure Chemical Corporation, REF: 049-08972) was used as a buffer solution. To a test compound solution (70 μL) adjusted to each concentration with 10% DMSO (FUJIFILM Wako Pure Chemical Corporation, REF: 043-07216) was added a buffer solution (350 μL) comprising 6 nM FITC-labeled Nrf2 peptide (FITC-Ahx-LDEETGEFL-NH2, Invitrogen) and 0.2 mg/mL of BSA (FUJIFILM Wako Pure Chemical Corporation, REF: 017-22231). Each 120 μL of the resulting mixture was dispensed into a black 96 well plate, and a buffer solution (80 μL) comprising 2.5 nM GST fusion human Keap1 (amino acid residue: 325-624) protein (Protein tech, REF: Ag0779) was added thereto. A Keap1-free buffer solution was added to some wells to prepare negative controls. Meanwhile, compound-free wells were used as positive controls. The plate was incubated at room temperature for 30 minutes, and each fluorescence polarization at excitation wavelength of 482 nm and fluorescence wavelength of 530 nm was measured by using a plate reader Clariostar (BMG Labtech). The fluorescence polarization of the negative control was set to be 100% inhibition, fluorescence polarization of the positive control was set to be 0% inhibition, and the inhibition rate of each test compound at 100 nM was calculated by using the following equation. Inhibition rate (%)=100−((Fluorescence polarization when test compound was added−Fluorescence polarization of negative control)/(Fluorescence polarization of positive control−Fluorescence polarization of negative control))×100
(In general: Polarisation of emitted light reports the rotation of a fluorescent probe.)

The subject of the next data set is NQO1. Briefly: NQO1 expression induction test in mouse kidney (single administration). The format is in vivo. The settings on record: BALB/c mouse kidney, 6 hours after administration, ratio to control group; for fold induction at 10 mg/kg: Mus musculus, po, 6 h. Here is the method:
Each test compound solution for administration was prepared by dissolving or suspending each test compound into a 0.5 w/v % aqueous solution of methylcellulose (0.5% MC) (manufactured by Wako Pure Chemical Industries, Ltd.).
Each prepared test compound was orally administered to a BALB/c mouse (female, provided by Charles River Laboratories Japan, Inc.). Non-treated group was used as a control group. After 6 hours from the administration, each mouse was anesthetized with isoflurane, and euthanized with bloodletting by incising a lower aorta. Immediately, the left kidney was excised, cut into small pieces, and then the cut kidney pieces were transferred to RNA later (Thermo Fisher Scientific).
Then, mRNA was extracted from the collected kidney pieces by using NucleoSpin (registered trademark) RNA Kit (Takara Bio Inc.), each concentration was quantified by FlexStation3 (Molecular Devices), and then the concentration was adjusted to a constant concentration. A reverse transcription synthesis of cDNA was carried out from the mRNA with the constant concentration by using PrimeScript™ RT reagent Kit with gDNA Eraser and PCR Thermal Cycler (Takara Bio Inc.). Then, in addition to the resulting cDNA, SYBR (registered trademark) Premix Ex Taq™ II and NQO1, GAPDH primer (Takara Bio Inc.) were used to carry out Real-time PCR by PCR Thermal Cycler Dice Real time (Takara Bio Inc.), and the NQO1 expression was quantified by using the GAPDH expression as the reference.
In order to evaluate the NQO1 expression induction in each group, the NQO1 expression induction ratio was calculated by using the following equation. (NQO1 expression induction ratio)=(Average NQO1 expression in test compound administered group)[…](Average NQO1 expression in control group)

Data set [2] in a line: Metabolism test using human liver microsome fractions. It counts as in vitro ADME. The following applies: human liver microsomes, test compound 10 μmol/L, NADPH and UDP-glucuronic acid, 37° C. Here is the method:
A reaction composition solution (comprising NADPH Regenerating System, Solution A (manufactured by Corning Inc., REF. 451220) (50 μL), NADPH Regenerating System, Solution B (manufactured by Corning Inc., REF. 451200) (10 μL), 250 mM UDP-glucuronic acid (40 μL), UGT Reaction Mix Solution B (manufactured by Corning Inc., REF. 451320) (200 μL), and distilled water (640 μL)) in which human liver microsomes (manufactured by Xenotech, Cat. No. H610) or monkey liver microsomes (manufactured by Xenotech, Cat. No. P2000) (corresponding to 1 mg of protein) were suspended was prepared. After the solution was incubated at 37° C. for 5 minutes, each test compound dissolved into DMSO (manufactured by FUJIFILM Wako Pure Chemical Corporation, Code No. 043-07216) was added to the solution so that the final concentration was set to be 10 μmol/L, and a reaction was initiated. After 0, 5, 10, 15, 20, and 30 minute(s) from the initiation of the metabolism reaction, 100 μL of the reaction solution was taken out of the reaction system, and added to 200 μL of acetonitrile to stop the reaction. After the reaction was completed, the reaction solution was subjected to a work-up such as deproteinization, and then subjected to an UV-HPLC analysis to carry out the following analysis.
The peak area of each test compound was calculated by LabSolution software (Shimadzu Corporation), and the residual ratio (%) at each culture time of test material was calculated by the following equation. Residual ratio (%)=Peak area at each culture time[…]Peak area at 0 (initial time)
Next, the residual amount (nmol/mg/mL) at each culture time of test material was calculated by the following equation. Residual amount (nmol/mg/mL)=Initial concentration of reaction solution (10 nmol/mg/mL)×residual ratio÷100
Finally, a graph in which the reaction time was plotted at horizontal axis and the residual amount was plotted at longitudinal axis was prepared on Excel, and the inclination was calculated as the elimination rate (pmol/min/mg-P) within the time range in which the graph was deemed linear.

A value given as a limit tells only on which side of the number the result lay.

T1 sequence (Q14145 325-624): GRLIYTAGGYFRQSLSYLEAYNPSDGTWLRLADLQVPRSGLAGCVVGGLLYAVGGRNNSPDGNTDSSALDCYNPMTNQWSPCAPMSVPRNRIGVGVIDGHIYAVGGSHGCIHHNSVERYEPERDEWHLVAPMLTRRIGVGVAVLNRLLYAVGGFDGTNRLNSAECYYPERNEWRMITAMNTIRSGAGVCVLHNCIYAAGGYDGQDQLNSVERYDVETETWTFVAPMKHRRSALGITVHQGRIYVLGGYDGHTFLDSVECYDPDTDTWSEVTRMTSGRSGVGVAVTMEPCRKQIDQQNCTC

Consider `CC[C@@H]1CN(Cc2cc(C(c3ccc4c(nnn4C)c3C)C(C)(C)C(=O)O)ccc2C)Cc2cc3c(cc2O1)OC(F)(F)O3` (single isomer, unassigned) [Example 29], for which the inhibition at 0.1 µM in data set [1] was no less than 50%. In the data set on NQO1, the fold induction at 10 mg/kg is greater than 6. For the same compound, the Human metabolic rate result in data set [2] is given as “A (metabolic rate<100 pmol/min/mg protein)”.

With `CC[C@@H]1CN(Cc2cc(C(c3ccc4c(nnn4C)c3C)C(C)(C)C(=O)O)ccc2C)Cc2cc3c(cc2O1)OC(F)(F)O3` (single isomer, unassigned) [Example 30], the Human metabolic rate result in data set [2] is listed as “E (metabolic rate≥250 pmol/min/mg protein)”.

As for `CC[C@@H]1CN(Cc2cc(C(c3ccc4c(nnn4C)c3C)C(C)(C)C(=O)O)ccc2C)Cc2cc3c(cc2O1)CCC3` (single isomer, unassigned) [Example 31], in data set [1], the inhibition at 0.1 µM is no less than 50%. Moreover, in the data set with NQO1, the fold induction at 10 mg/kg lay in the range of 3 to 6. The Human metabolic rate entry in data set [2] was “B (100≤metabolic rate<150 pmol/min/mg protein)”. Regarding `CC[C@@H]1CN(Cc2cc(C(c3ccc4c(nnn4C)c3C)C(C)(C)C(=O)O)ccc2C)Cc2cc3c(cc2O1)CCC3` (single isomer, unassigned) [Example 32], in data set [2], the Human metabolic rate result is recorded as “D (200≤metabolic rate<250 pmol/min/me protein)”. For the compound `CC[C@@H]1CN(Cc2cc(C(c3ccc4c(nnn4C)c3C)C(C)(C)C(=O)O)ccc2C)Cc2cc3c(cc2O1)CCCC3` (single isomer, unassigned) [Example 33], the inhibition at 0.1 µM in data set [1] is no less than 50%. In addition, the fold induction at 10 mg/kg in the data set with NQO1 is 3 to 6. In addition, the Human metabolic rate entry in data set [2] is on record as “A (metabolic rate<100 pmol/min/mg protein)”. Consider `CC[C@@H]1CN(Cc2cc(C(c3ccc4c(nnn4C)c3C)C(C)(C)C(=O)O)ccc2C)Cc2cc3c(cc2O1)CCCC3` (single isomer, unassigned) [Example 34], for which the Human metabolic rate result in data set [2] is reported as “C (150≤metabolic rate<200 pmol/min/mg protein)”. As to `CC[C@@H]1CN(Cc2cc(C(c3ccc4c(nnn4C)c3C)C(C)(C)C(=O)O)ccc2C)Cc2ccc3c(c2O1)CCC3` (single isomer, unassigned) [Example 35], the inhibition at 0.1 µM in data set [1] was no less than 50%. Moreover, the fold induction at 10 mg/kg with NQO1 is greater than 6. Also, the Human metabolic rate entry in data set [2] is “B (100≤metabolic rate<150 pmol/min/mg protein)”. As to `CC[C@@H]1CN(Cc2cc(C(c3ccc4c(nnn4C)c3C)C(C)(C)C(=O)O)ccc2C)Cc2ccc3c(c2O1)CCC3` (single isomer, unassigned) [Example 36], the Human metabolic rate result in data set [2] was “C (150≤metabolic rate<200 pmol/min/mg protein)”. Same read-out and setting: as for `CC[C@@H]1CN(Cc2cc(C(c3ccc4c(nnn4C)c3C)C(C)(C)C(=O)O)ccc2C)Cc2nc3ccccc3cc2O1` (single isomer, unassigned) [Example 38], the entry is “E (metabolic rate≥250 pmol/min/mg protein)”.

In the case of `CC[C@@H]1CN(Cc2cc(C(c3ccc4c(nnn4C)c3C)C(C)(C)C(=O)O)ccc2C)Cc2cc3cccnc3cc2O1` (single isomer, unassigned) [Example 40], the Human metabolic rate result in data set [2] is reported as “E (metabolic rate≥250 pmol/min/mg protein)”. In the case of `CC[C@@H]1CN(Cc2cc(C(c3ccc4c(nnn4C)c3C)C(C)(C)C(=O)O)ccc2C)Cc2cc3ncccc3cc2O1` (single isomer, unassigned) [Example 42], the Human metabolic rate entry in data set [2] is “E (metabolic rate≥250 pmol/min/mg protein)”.

Consider `CC[C@@H]1CN(Cc2cc(C(c3ccc4c(nnn4C)c3C)C(C)(C)C(=O)O)ccc2C)Cc2c(ccc3cn[nH]c23)O1` (single isomer, unassigned) [Example 44], for which the Human metabolic rate result in data set [2] is “E (metabolic rate≥250 pmol/min/mg protein)”. On the same count and under the same terms, as for `CC[C@@H]1CN(Cc2cc(C(c3ccc4c(nnn4C)c3C)C(C)(C)C(=O)O)ccc2C)Cc2ncc3ccccc3c2O1` (single isomer, unassigned) [Example 46], the entry is “E (metabolic rate≥250 pmol/min/mg protein)”.

With `Cc1ccc(C(c2ccc3c(nnn3C)c2C)C(C)(C)C(=O)O)cc1CN1Cc2cc3ncccc3cc2OC2(CC2)C1` (single isomer, unassigned) [Example 86, 3-(3-((3′H-spiro[cyclopropane-1,2′-[1,4]oxazepino[7,6-g]quinoline]-4′ (5′H)-yl)methyl)-4-methylphenyl)-3-(1,4-dimethyl-1H-benzo[d][1,2,3]triazol-5-yl)-2,2-dimethylpropanoic Acid], the Human metabolic rate entry in data set [2] is reported as “E (metabolic rate≥250 pmol/min/mg protein)”. Still for that read-out and setting: the result for `CC[C@@H]1CN(Cc2cc(C(c3ccc4c(nnn4C)c3C)C3(C(=O)O)CCC3)ccc2C)Cc2cc3ncccc3cc2O1` (single isomer, unassigned) [Example 88] reads “E (metabolic rate≥250 pmol/min/mg protein)”; that for `CC[C@H]1CN(Cc2cc(C(c3ccc4c(nnn4C)c3C)C(C)(C)C(=O)O)ccc2C)Cc2ncc3ccccc3c2O1` (single isomer, unassigned) [Example 90], “C (150≤metabolic rate<200 pmol/min/mg protein)”. On the same count and under the same terms, the result for `CC[C@@H]1CN(Cc2cc(C(c3ccc4c(nnn4C)c3C)C(C)(C)C(=O)O)ccc2C)Cc2ccccc2O1` (single isomer, unassigned) [Example C2, reference compound] reads “E (metabolic rate≥250 pmol/min/mg protein)”. For the compound `CC[C@H]1CN(Cc2cc(C(c3ccc4c(nnn4C)c3C)C(C)(C)C(=O)O)ccc2C)Cc2cc3ncccc3cc2O1` (single isomer, unassigned; diastereomer 1) [Example 57-(c)], the inhibition at 0.1 µM in data set [1] is no less than 50%. In addition, the Human metabolic rate entry in data set [2] is reported as “C (150≤metabolic rate<200 pmol/min/mg protein)”. For the compound `CCCC1CN(Cc2cc(C(c3ccc4c(nnn4C)c3C)C(C)(C)C(=O)O)ccc2C)Cc2cc3ncccc3cc2O1` (centres unmarked) [Example 78-(b), 3-(1,4-dimethyl-1H-benzo[d][1,2,3]triazol-5-yl)-2,2-dimethyl-3-(4-methyl-3-((2-propyl-2,3-dihydro-[1,4]oxazepino[7,6-g]quinolin-4 (5H)-yl)methyl)phenyl)propanoic Acid], the “NQO1 expression induction activity” value in the data set on NQO1 (Dose 20 mg/kg, oral, 20 mg/kg) is “B (3<NQO1 expression induction ratio≤6)”. Further, in data set [2], the Human metabolic rate result is reported as “B (100≤metabolic rate<150 pmol/min/mg protein)”.

A word on the inhibition: it is the share of the control response that was lost under treatment. What is called fold induction is the ratio of treated to control signal.

Values taken from patent US12559504B2, “Benzotriazole derivative” (UBE CORPORATION, priority 2019, dated 2026).
